Patent US12202835B2, “Substituted aromatic ring-linked dioxinoquinazolines and dioxinoquinolines as kinase inhibitors” (BEIJING SCITECH-MQ PHARMACEUTICALS LIMITED, priority 2018, dated 2025)
pIC50: −log10 of the molar value.

Experiments:
Ba/F3-AXL cells = test: Assay for inhibiting the proliferation of Ba/F3-AXL cells (CCK-8); assay type: cell-based; conditions: 72 hours of incubation, medium with 100 ng/mL hGas6, CCK-8
Protocol: The values were then imported into Graphpad Prism 5 software for curve fitting, and IC50 was calculated.

MER kinase = MER kinase (Homo sapiens (Human), UniProt Q12866); test: Assay of small molecular compounds for inhibiting the activity of MER kinase (LANCE TR-FRET); assay type: biochemical
How it was run: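 MER kinase preincubated 5 min at RT with compound (11 points, 0.042-2500 nM final), then ULight-poly GT and ATP added (4× stocks 200 nM and 20 μM) for 60 min at RT, 1% DMSO. Phosphorylation detected by LANCE TR-FRET; IC50 from % inhibition versus controls.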

c-MET kinase = c-MET kinase (Homo sapiens (Human), UniProt P08581); test: Assay of small molecular compounds for inhibiting the activity of c-MET kinase (LANCE TR-FRET); assay type: biochemical; conditions: read-out: CMET IC50
How it was run: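 LANCE TR-FRET assay with c-MET at 1 nM final after a 5 min room-temperature preincubation with compound (11-point, 3-fold series, 2500–0.042 nM final, 4% DMSO). ULight-JAK-1 (Tyr1023) peptide (100 nM final) and ATP (10 μM final) reacted 60 min in the dark. Inhibition was taken relative to controls, then IC50 fitted.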

TRKA kinase = TRKA kinase (Homo sapiens (Human), UniProt P04629); test: Assay of small molecular compounds for inhibiting the activity of TRKA kinase (LANCE TR-FRET); assay type: biochemical
How it was run: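 LANCE TR-FRET with ULight-TK peptide; compounds pre-incubated 5 min with TRKA (2× solution 2 nM), then substrate/ATP added (4× mix: 400 nM peptide, 40 μM ATP). Reaction 60 min at room temperature in dark, 1% DMSO final; stopped, detection developed 60 min, signal read.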

Ba/F3 LMNA-NTRK1 cells = test: Assay for inhibiting the proliferation of Ba/F3 LMNA-NTRK1 cells (CCK-8); assay type: cell-based; conditions: Mus musculus, BaF3
Protocol: In particular, the method of the assay of small molecular compounds for inhibiting cell proliferation is as follows: • 1. Cells cultured to a logarithmic growth phase (adherent cells need to be digested with trypsin and neutralized) were taken, pipetted evenly, transferred to a 15 mL centrifuge tube, and centrifuged at 1000 rpm at room temperature for 4 minutes; • 2. The supernatant was discarded; 5 mL of complete medium was added and pipetted evenly; 10 μL of cell suspension was taken out, mixed well with 10 μL of 0.4% trypan blue, and counted under a cell counter; the proportion of living cells was ensured to be above 90%; • 3. 80 μL of cell suspension per well was seeded into a 96-well plate according to the conditions shown in the attached table, and cultured overnight; in the outer 36 wells of the 96-well plate, no cells were added but only sterile water was added; only the inner 60 wells were used for cell assay and control; • 4. […] 20 μL of the corresponding compounds with different concentration gradients were added to each well of assay wells of the 96-well plate; 20 μL of complete medium was added to positive and negative control wells and shaken well; and the final concentration of DMSO in each well was 0.25%; • 6. After 72 hours of incubation, 10 μL of CCK-8 reagent was added to each well and further incubated at 37° C. for 1-2 hours; and the OD value was read at 450 nm; • 7. Cell survival rate (%)=[(As−Ab)/(Ac−Ab)]*100% • As: Assay well (medium containing cells, CCK-8, compound), • Ac: Control well (medium containing cells, CCK-8), • Ab: Blank well (CCK-8, medium without cell and compound), • 8. The values were imported into Graphpad Prism 5 software for IC50 calculation.

VEGFR-2 kinase = VEGFR-2 kinase (Homo sapiens (Human), UniProt P35968); test: Assay of small molecular compounds for inhibiting the activity of VEGFR-2 kinase (LANCE TR-FRET); assay type: biochemical; conditions: read-out: VEGFR2 IC50
Protocol: The assay is based on the LANCE TR-FRET technology of Perkin Elmer Inc., and the assay method is as follows: • 1. Dilution of compounds: a total of 11 concentrations were obtained using a 3-fold gradient dilution from the highest concentration of 2500 nM (the maximum final concentration of the drug used in this assay was 2500 nM, and the minimum final concentration was 0.042 nM). • 2. 2.5 μL of the gradient-diluted compounds were taken with a transfer pipette to a 384-well plate. • 3. Addition of enzyme: 5 μL of 2×VEGFR2 kinase solution (with a concentration of 0.5 nM) was taken with a transfer pipette to the corresponding reaction well of the 384-well plate, mixed well and pre-reacted at room temperature for 30 minutes. • 4. 2.5 μL 4× Ultra ULight™-JAK-1 (Tyr1023) Peptide (with a concentration of 200 nM)/ATP (with a concentration of 40 μM) mixture was taken with a transfer pipette to the corresponding reaction well of the 384-well plate. • 5. Negative control: 2.5 μL/well 4× substrate/ATP mixture and 7.5 μL 1× Kinase Assay Buffer were added to the wells of the 384-well plate. • 6. Positive control: 2.5 μL/well 4× substrate/ATP mixture, 2.5 μL/well 1× Kinase Assay Buffer containing 16% DMSO, and 5 μL/well 2×VEGFR-2 kinase solution were added to the 384-well plate. The final concentration of DMSO in the reaction system was 4%. • 7. The mixture was mixed well and then centrifuged and reacted at room temperature in dark for 60 min. • 8. Termination of the enzymatic reaction: 5 μL of 4× stop solution was taken with a transfer pipette to the wells of the 384-well plate, mixed and then centrifuged, and reacted at room temperature for 5 min. • 9. Development of the reaction: 5 μL of 4× detection solution was taken with a transfer pipette to the wells of the 384-well plate for color development, and the mixture was mixed and then centrifuged and reacted at room temperature for 60 min. • 10. The 384-well plate was placed into the Envision plate reader and the signal was detected using the appropriate program. • 11. Analysis and processing of the raw data: The drug concentrations and the corresponding inhibition rates were input into GraphPad Prism5 for calculation, and the inhibition rate of the compounds were calculated as follows: inhibition rate (%)=(reading of positive well−reading of experimental well)/(reading of positive control well−reading of negative control well)×100%. Processing with GraphPad Prism5 software yielded the corresponding IC50 values (the concentration of the compound at which 50% of the highest inhibition of the enzyme is achieved).

MER kinase, sequence (Q12866 21-999): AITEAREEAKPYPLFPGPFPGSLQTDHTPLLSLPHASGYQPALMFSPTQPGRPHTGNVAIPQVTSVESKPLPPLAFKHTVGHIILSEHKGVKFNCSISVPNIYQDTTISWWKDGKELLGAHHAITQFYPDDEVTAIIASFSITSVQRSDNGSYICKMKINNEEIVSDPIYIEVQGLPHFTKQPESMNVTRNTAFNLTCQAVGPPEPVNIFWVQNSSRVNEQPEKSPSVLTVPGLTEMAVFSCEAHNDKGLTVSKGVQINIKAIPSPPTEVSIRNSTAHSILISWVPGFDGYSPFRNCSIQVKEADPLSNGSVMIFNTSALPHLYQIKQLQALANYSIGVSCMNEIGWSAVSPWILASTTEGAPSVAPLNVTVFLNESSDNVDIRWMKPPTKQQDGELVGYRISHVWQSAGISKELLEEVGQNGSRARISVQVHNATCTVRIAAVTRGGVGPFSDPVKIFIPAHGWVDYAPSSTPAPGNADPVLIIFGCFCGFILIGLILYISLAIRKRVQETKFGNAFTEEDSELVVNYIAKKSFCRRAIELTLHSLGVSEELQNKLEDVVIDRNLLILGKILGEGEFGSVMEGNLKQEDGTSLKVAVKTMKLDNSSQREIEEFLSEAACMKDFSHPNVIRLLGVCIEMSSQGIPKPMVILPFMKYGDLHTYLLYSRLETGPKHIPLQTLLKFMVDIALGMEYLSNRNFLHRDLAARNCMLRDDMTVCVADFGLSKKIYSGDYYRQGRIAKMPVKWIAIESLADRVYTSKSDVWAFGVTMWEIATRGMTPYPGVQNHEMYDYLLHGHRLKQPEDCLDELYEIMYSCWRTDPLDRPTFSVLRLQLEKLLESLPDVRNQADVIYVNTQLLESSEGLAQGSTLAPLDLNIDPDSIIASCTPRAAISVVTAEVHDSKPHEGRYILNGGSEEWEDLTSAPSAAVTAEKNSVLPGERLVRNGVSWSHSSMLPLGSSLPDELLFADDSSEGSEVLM
c-MET kinase, sequence (P08581 25-1390): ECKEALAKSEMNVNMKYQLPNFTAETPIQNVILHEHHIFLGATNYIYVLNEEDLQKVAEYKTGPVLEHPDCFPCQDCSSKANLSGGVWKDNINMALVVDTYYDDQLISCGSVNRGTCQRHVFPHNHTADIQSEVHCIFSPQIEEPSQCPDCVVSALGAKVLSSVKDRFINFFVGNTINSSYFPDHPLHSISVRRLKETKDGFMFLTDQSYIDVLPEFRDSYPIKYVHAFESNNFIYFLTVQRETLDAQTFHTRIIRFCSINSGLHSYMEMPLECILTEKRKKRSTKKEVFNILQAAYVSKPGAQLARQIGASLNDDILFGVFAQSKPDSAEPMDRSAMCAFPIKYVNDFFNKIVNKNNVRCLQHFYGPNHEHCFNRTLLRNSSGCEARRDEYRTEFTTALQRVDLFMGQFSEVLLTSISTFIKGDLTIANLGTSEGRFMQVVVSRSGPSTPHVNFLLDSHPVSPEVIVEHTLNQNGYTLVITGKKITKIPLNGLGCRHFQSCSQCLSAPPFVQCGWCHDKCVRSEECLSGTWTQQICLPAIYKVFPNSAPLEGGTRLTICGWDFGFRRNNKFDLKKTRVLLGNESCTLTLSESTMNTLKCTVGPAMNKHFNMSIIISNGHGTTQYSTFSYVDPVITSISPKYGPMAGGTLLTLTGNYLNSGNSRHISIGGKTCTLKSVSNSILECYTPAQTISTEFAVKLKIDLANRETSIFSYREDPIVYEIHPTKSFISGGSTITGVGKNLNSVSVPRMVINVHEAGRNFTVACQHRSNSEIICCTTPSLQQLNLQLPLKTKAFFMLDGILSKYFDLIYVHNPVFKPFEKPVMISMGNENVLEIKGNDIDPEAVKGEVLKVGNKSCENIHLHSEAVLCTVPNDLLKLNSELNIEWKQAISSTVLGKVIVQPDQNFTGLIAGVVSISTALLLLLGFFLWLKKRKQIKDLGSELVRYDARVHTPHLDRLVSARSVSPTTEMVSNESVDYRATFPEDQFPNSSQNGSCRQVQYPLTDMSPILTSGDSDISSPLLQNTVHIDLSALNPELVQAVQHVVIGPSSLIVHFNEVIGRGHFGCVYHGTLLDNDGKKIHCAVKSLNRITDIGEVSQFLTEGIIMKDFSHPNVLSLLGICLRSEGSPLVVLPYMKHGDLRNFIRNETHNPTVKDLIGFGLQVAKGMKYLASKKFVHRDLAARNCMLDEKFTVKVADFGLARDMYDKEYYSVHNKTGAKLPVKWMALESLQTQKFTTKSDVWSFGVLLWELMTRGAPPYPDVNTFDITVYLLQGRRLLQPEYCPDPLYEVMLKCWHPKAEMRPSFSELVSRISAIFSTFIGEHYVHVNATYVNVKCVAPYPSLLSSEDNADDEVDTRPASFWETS
TRKA kinase, sequence (P04629 33-796): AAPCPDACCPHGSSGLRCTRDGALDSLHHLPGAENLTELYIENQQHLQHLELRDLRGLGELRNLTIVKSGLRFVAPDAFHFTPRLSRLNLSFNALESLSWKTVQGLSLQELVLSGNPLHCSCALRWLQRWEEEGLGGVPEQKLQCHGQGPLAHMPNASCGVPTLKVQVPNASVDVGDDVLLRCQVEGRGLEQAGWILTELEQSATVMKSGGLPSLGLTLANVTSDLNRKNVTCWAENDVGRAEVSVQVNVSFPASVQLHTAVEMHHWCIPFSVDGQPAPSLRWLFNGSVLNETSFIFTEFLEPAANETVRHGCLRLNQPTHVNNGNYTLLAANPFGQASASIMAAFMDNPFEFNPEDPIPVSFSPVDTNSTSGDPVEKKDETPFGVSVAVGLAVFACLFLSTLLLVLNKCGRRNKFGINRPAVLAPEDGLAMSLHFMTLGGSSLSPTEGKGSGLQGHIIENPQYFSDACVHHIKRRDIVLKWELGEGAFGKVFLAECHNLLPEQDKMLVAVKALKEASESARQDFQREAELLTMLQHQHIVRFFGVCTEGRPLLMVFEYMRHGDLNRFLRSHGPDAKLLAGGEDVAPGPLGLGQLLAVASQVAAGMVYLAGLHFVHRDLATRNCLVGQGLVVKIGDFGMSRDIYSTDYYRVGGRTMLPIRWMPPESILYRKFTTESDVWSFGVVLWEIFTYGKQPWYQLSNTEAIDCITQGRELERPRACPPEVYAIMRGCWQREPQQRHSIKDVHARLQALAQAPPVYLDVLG
VEGFR-2 kinase, sequence (P35968 20-1356): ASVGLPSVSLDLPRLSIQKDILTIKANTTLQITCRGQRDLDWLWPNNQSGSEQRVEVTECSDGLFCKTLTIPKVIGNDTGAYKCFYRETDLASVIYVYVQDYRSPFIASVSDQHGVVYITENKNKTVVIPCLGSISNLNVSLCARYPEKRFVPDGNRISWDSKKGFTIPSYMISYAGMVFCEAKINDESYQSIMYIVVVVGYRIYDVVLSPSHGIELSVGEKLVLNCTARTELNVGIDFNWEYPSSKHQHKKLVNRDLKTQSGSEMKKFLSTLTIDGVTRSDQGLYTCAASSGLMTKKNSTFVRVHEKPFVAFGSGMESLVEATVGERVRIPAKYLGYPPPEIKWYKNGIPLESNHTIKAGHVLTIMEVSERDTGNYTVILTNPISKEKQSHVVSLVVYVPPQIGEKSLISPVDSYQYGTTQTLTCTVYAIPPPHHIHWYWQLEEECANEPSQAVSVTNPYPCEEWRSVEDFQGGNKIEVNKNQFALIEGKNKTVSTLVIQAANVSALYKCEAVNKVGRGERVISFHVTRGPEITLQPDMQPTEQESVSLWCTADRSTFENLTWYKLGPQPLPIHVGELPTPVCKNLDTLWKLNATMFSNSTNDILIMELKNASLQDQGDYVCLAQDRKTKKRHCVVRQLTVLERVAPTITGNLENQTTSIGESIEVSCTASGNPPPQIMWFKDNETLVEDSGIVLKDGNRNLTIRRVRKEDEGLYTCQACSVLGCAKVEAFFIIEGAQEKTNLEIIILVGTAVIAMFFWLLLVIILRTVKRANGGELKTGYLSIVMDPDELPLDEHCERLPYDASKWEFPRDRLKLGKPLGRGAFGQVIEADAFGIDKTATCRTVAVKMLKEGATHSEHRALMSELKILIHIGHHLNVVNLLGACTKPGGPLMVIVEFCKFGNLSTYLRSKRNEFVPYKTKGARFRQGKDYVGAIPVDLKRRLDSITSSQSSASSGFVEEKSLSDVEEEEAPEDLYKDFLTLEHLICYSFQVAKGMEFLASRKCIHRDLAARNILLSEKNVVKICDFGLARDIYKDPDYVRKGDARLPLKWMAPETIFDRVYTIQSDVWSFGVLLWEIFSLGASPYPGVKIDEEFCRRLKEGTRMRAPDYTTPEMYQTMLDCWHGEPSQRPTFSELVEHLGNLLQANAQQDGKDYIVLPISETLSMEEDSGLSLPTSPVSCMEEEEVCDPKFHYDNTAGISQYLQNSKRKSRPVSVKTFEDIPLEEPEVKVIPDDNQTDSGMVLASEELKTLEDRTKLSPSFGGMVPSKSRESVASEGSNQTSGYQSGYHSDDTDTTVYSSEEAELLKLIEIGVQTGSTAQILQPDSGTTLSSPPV

| SMILES | pIC50 (Ba/F3-AXL cells) | pIC50 (MER kinase) | pIC50 (c-MET kinase) | pIC50 (TRKA kinase) | pIC50 (Ba/F3 LMNA-NTRK1 cells) | pIC50 (VEGFR-2 kinase) |
| --- | --- | --- | --- | --- | --- | --- |
| Cc1cc(F)ccc1-n1ccc(C(=O)Nc2ccc(Oc3ccnc4cc(OCCCN5CCOCC5)c5c(c34)OCCO5)c(F)c2)n1 [Example 26, 1-(4-fluoro-2-methylphenyl)-N-(3-fluoro-4-((5-(3-morpholinopropoxy)-2,3-dihydro-[1,4]dioxino[2,3-f]quinolin-10-yl)oxy)phenyl)-1H-pyrazole-3-carboxamide] | > 7.30 | 6.30 to 7.30 | ≥ 7.30 | > 7.30 | > 7.30 |  |
| COc1ccn(-c2ccc(F)cc2)c(=O)c1C(=O)Nc1ccc(Oc2ccnc3cc(OCCCN4CCOCC4)c4c(c23)OCCO4)cc1Cl [Example 144, N-(2-chloro-4-((5-(3-morpholinopropoxy)-2,3-dihydro-[1,4]dioxino[2,3-f]quinolin-10-yl)oxy)phenyl)-1-(4-fluorophenyl)-4-methoxy-2-oxo-1,2-dihydropyridine-3-carboxamide] |  |  | ≥ 7.30 | > 7.30 | > 7.30 | 6.30 to 7.30 |
| CCOc1ccn(C2CCCCC2)c(=O)c1C(=O)Nc1ccc(Oc2ccnc3cc(OC)c4c(c23)OCCO4)c(F)c1 [Example 119, 1-cyclohexyl-4-ethoxy-N-(3-fluoro-4-((5-methoxy-2,3-dihydro-[1,4]dioxino[2,3-f]quinolin-1 0-yl)oxy)phenyl)-2-oxo-1,2-dihydropyridine-3-carboxamide] |  | 5.30 to 6.30 |  | < 5.30 |  | < 5.30 |
| CCOc1cc2nccc(Oc3ccc(NC(=O)c4cn(C(C)C)c(=O)n(-c5ccc(F)cc5)c4=O)cc3F)c2c2c1OCCO2 [Example 87, N-(3-fluoro-4-((5-ethoxy-2,3-dihydro-[1,4]dioxino[2,3-f]quinolin-10-yl)oxy)phenyl)-3-(4-fluorophenyl)-1-isopropyl-2,4-dioxo-1,2,3,4-tetrahydropyrimidine-5-carboxamide] | > 7.30 | ≥ 7.30 | 6.30 to 7.30 | 6.30 to 7.30 |  |  |
| CC(C)n1cc(C(=O)Nc2ccc(Oc3ccnc4cc(OCC#N)c5c(c34)OCCO5)c(F)c2)c(=O)n(-c2ccc(F)cc2)c1=O [Example 81, N-(3-fluoro-4-((5-(cyanomethoxy)-2,3-dihydro-[1,4]dioxino[2,3-f]quinolin-10-yl)oxy)phenyl)-3-(4-fluorophenyl)-1-isopropyl-2,4-dioxo-1,2,3,4-tetrahydropyrimidine-5-carboxamide] | > 7.30 | ≥ 7.30 | 6.30 to 7.30 | 5.30 to 6.30 |  |  |
| CC(C)n1cc(C(=O)Nc2ccc(Oc3ccnc4cc(OCCCC#N)c5c(c34)OCCO5)c(F)c2)c(=O)n(-c2ccc(F)cc2)c1=O [Example 82, N-(3-fluoro-4-((5-(3-cyanopropoxy)-2,3-dihydro-[1,4]dioxino[2,3-f]quinolin-10-yl)oxy)phenyl)-3-(4-fluorophenyl)-1-isopropyl-2,4-dioxo-1,2,3,4-tetrahydropyrimidine-5-carboxamide] | > 7.30 | ≥ 7.30 | 6.30 to 7.30 | 6.30 to 7.30 |  |  |
| COc1cc2nccc(Oc3ccc(NC(=O)c4cn(C(C)C)c(=O)n(-c5cccc(F)c5)c4=O)cc3F)c2c2c1OCCO2 [Example 109, N-(3-fluoro-4-((5-methoxy-2,3-dihydro-[1,4]dioxino[2,3-f]quinolin-10-yl)oxy)phenyl)-3-(3-fluorophenyl)-1-isopropyl-2,4-dioxo-1,2,3,4-tetrahydropyrimidine-5-carboxamide] | > 7.30 | ≥ 7.30 | ≥ 7.30 | 5.30 to 6.30 |  |  |
| COc1cc2nccc(Oc3ccc(NC(=O)c4cccn(-c5ccc(F)cc5)c4=O)c(Cl)c3)c2c2c1OCCO2 [Example 123, N-(2-chloro-4-((5-methoxy-2,3-dihydro-[1,4]dioxino[2,3-f]quinolin-10-yl)oxy)phenyl)-1-(4-fluorophenyl)-2-oxo-1,2-dihydropyridine-3-carboxamide] | > 7.30 | ≥ 7.30 |  | > 7.30 | > 7.30 | < 5.30 |
| CCOc1cn(-c2ccc(F)cc2C)nc1C(=O)Nc1ccc(Oc2ccnc3cc(OCCCN4CCOCC4)c4c(c23)OCCO4)c(F)c1 [Example 28, 1-(4-fluoro-2-methylphenyl)-N-(3-fluoro-4-((5-(3-morpholinopropoxy)-2,3-dihydro-[1,4]dioxino[2,3-f]quinolin-10-yl)oxy)phenyl)-4-ethoxy-1H-pyrazole-3-carboxamide] | > 7.30 | ≥ 7.30 | ≥ 7.30 | > 7.30 | > 7.30 |  |
| N#CCCCOc1cc2nccc(Oc3ccc(NC(=O)c4cccn(-c5ccc(F)cc5)c4=O)c(Cl)c3)c2c2c1OCCO2 [Example 131, N-(2-chloro-4-((5-(3-cyanopropoxy)-2,3-dihydro-[1,4]dioxino[2,3-f]quinolin-10-yl)oxy)phenyl)-1-(4-fluorophenyl)-2-oxo-1,2-dihydropyridine-3-carboxamide] |  | 6.30 to 7.30 | ≥ 7.30 | > 7.30 | > 7.30 |  |
| CC(C)n1cc(C(=O)Nc2ccc(Oc3ccnc4cc(OCCCCCCN(C)C)c5c(c34)OCCO5)c(F)c2)c(=O)n(-c2ccc(F)cc2)c1=O [Example 85, N-(3-fluoro-4-((5-((6-dimethylamino)hexyloxy)-2,3-dihydro-[1,4]dioxino[2,3-f]quinolin-10-yl)oxy)phenyl)-3-(4-fluorophenyl)-1-isopropyl-2,4-dioxo-1,2,3,4-tetrahydropyrimidine-5-carboxamide] | > 7.30 |  | 6.30 to 7.30 |  | > 7.30 | 6.30 to 7.30 |
| COc1cn(-c2ccc(F)cc2C)nc1C(=O)Nc1ccc(Oc2ccnc3cc(OC)c4c(c23)OCCO4)c(F)c1 [Example 24, 1-(4-fluoro-2-methylphenyl)-N-(3-fluoro-4-((5-methoxy-2,3-dihydro-[1,4]dioxino[2,3-f]quinolin-10-yl)oxy)phenyl)-4-methoxy-1H-pyrazole-3-carboxamide] |  | 6.30 to 7.30 | 6.30 to 7.30 | > 7.30 | > 7.30 |  |
